ChEMBL document CHEMBL1142413

Legend:
Homo sapiens [1] = species: Homo sapiens; experiment: Ratio of IC50 for human CB1R K192L mutant to IC50 for human wild type CB1R
Homo sapiens [2] = species: Homo sapiens; experiment: Ratio of IC50 for human CB1R F200L mutant to IC50 for human wild type CB1R
Homo sapiens [3] = species: Homo sapiens; experiment: Ratio of IC50 for human CB1R S383A mutant to IC50 for human wild type CB1R
Homo sapiens [4] = species: Homo sapiens; experiment: Ratio of IC50 for human CB1R W279A mutant to IC50 for human wild type CB1R

Fold change (Homo sapiens [1]): 17 | Fold change (Homo sapiens [2]): 3 | Fold change (Homo sapiens [3]): < 2 | Fold change (Homo sapiens [4]): > 1000
SMILES: Cc1c(C(=O)NN2CCCCC2)nn(-c2ccc(Cl)cc2Cl)c1-c1ccc(Cl)cc1
